Drawing on PubChem BioAssay AID449750 (Broad Institute, 2010), this text covers AC50 for nine molecules.

Activity calls are given as the source filed them. No rule for the calls is given here.

This assay in a line: non-covalent RecA intein splicing inhibitors, dose response, biochemical, cell-free, fluorescence, secondary screen (AID 449750).
For orientation: AC50 means the concentration at which the activity in the assay is half-maximal. Turning to `CCOc1cc(/C=C(\C#N)C(=O)Nc2cccc(C(=O)O)c2)cc(Br)c1OC(=O)c1ccc(OC)cc1`, the concentration at half-maximal activity (AC50) was 8.34 µM.

On to `O=C1/C(=C\c2cc([N+](=O)[O-])ccc2O)SC(=S)N1Cc1ccc(Cl)cc1`, for which the half-maximal activity concentration (AC50) is 13.8 µM.

As to `C/C(CC(=O)Nc1ccccn1)=N\NC(=O)Cc1cccc2ccccc12`, the AC50 was 25.6 µM.

Regarding `CCSc1c([N+](=O)[O-])c(=O)n(-c2ccccc2)c2ccccc12`, the AC50 is > 38 µM (inactive).

On to `CCNC1=C(Cl)C(=O)c2ccccc2C1=O`, for which the AC50 is 22.3 µM.

On to `O=C(CCCN1C(=O)/C(=C\c2cccs2)SC1=S)Nc1ccc(O)cc1`, for which the AC50 is > 38 µM (inactive).

As for `C=C(C)CNC(=S)N=Nc1c(O)[nH]c2ccc([N+](=O)[O-])cc12`, the AC50 is > 38 µM (inactive).

For the molecule `CCOc1cc(C(c2c(C)[nH][nH]c2=O)c2c(C)[nH][nH]c2=O)cc([N+](=O)[O-])c1O`, the AC50 was 13.1 µM.

For the molecule `O=C1C2=C(NC(=S)NC2c2ccc(Cl)cc2)NC(c2ccc(Cl)cc2)N1c1ccc(Cl)cc1` (centres undefined), the AC50 was 4.62 µM.
